Experimental data from patent US6403090B1, “Peptides which mimic candida carbohydrate epitopes and their use in a vaccine” (The Research and Development Institute Inc., priority 1994, dated 2002).
Where a SMILES comes first, the peptide text is derived from it. [ ]: non-standard residue; d: D form. Nle = CCCC[C@H](N)C(=O)O

Columns and labels:
[1] = tested on: binding of C. albicans hydrophilic yeast cells to splenic marginal zone macrophages; experiment: Ex vivo adherence assay on mouse splenic tissue; conditions: purified epitope of mAb 10G
Description: Tissue adherence characteristics of C. albicans and adhesin isolation. By use of an ex vivo adherence assay, the adherence characteristics of hydrophilic and hydrophobic yeast cells to mouse splenic and lymph node tissue was examined (Cutler, J. E., et al., 1990, Characteristics of Candida albicans adherence to mouse tissues. Infec. Immun. 58:1902-1908); Han, Y., et al. 1993. Binding of C. albicans yeast cells to mouse popliteal lymph node tissue is mediated by macrophages. Infect. Immun. 61:3244-3249; and Hazen, K. C., et al. 1991. Differential adherence between hydrophobic and hydrophilic yeast cells of C. albicans. Infect. Immun. 59:907-91212).
C. neoformans strain 602 log and stationary phase cells were removed form the various growth conditions and tested for adherence to splenic tissue in the ex vivo assay. […]
However, 2ME extract will not inhibit yeast adherence if the extract is treated with antiserum from vaccinated animals. […] 100 μl of each was overlaid onto splenic cryosections for 15 min at 4° C., the mixtures were decanted, 100 μl of a suspension of yeast cells (1.5×10^7/0.1 ml DMEM) was added to each tissue section for 15 min at 4° C., and yeast cell binding was quantified as previously described (Riesselman, M. H. et al. 1991. Improvements and important considerations of an ex vivo assay to study interactions of C. albicans with splenic tissue., J. Immunol. Methods 1450:153-160). […]

g3p in COS-1 cells = experiment: g3p expression in transfected COS-1 cells by IFA; format: cell-based; conditions: COS-1 cells treated with protease inhibitor
Description: To achieve greater levels of expression, the plasmids were transfected into COS-1 cells, which are capable of replicating the plasmids and generating exceptional amounts of the encoded proteins. […] Several different transfection methods and variations were tested to increase the proportion of cells that would express detectable g3p. […] Therefore, g3p is likely being broken down rapidly by the mammalian cells.
This possibility was further tested by treating the COS-1 cells with a protease inhibitor (ALLN) that can inhibit proteases in the endoplasmic reticulum of living cells. […] The antigen was detected in the Golgi apparatus as well as in the endoplasmic reticulum. Less of the truncated version of g3p (without a membrane anchor) was detectable; whether any of it is secreted from the expressing cells under these conditions remains to be determined.

Solubility tests = format: physicochemical
Description: Synthetic peptide inhibits binding of MAb B6.1 to its' carbohydrate epitope. […] We obtained a synthetic 13-mer peptide (Bio-Synthesis, Lewisville, Tex.), YRQFVTGFWGPPC, (SEQ ID NO:7) which was designed to include the PS76 nonapeptide sequence (designated as PS76p) plus the 3 amino acid pIII tether (GPP) and an added cysteine (C) to facilitate peptide coupling to a carrier protein, such as keyhole limpet hemocyanin (KLH). Due to the high number of hydrophobic amino acids in the synthesized PS76p, solubility tests were run to determine conditions for dot blot inhibition studies. The PS76p was soluble in trifluoroacetic acid, dimethylsulfoxide, 20% v/v acetic acid, citrate and acetate buffers below pH 5.4, borate buffer above pH 8.5, but not soluble in deionized water, phosphate buffered saline (PBS), 15% v/v dimethylformamide, chloroform, or methanol.

C. albicans 2ME extract = experiment: Antibody response of mice immunized with peptide mimotope preparations; format: in vivo, BALB/c mice; conditions: for Class of the antibody response against 2ME extract: γ-chain or μ-chain specific secondary antibodies
Description: Administration of peptide intraperitoneally (i.p.) BALB/c mice (4 animals) were immunized i.p. with PS76p (1 mg per dose) mixed into sterile PBS (degassed and nitrogen sparged) with and without RS-700MPL+TDM Ribi Adjuvant (Ribi Immunochem, Hamilton, Mont.). The insolubility of PS76p in PBS, as noted above, produced a particulate inoculum which was sonicated briefly (10 sec, ice cold) to minimize particulate size prior to injection. Animals were boosted with 1 mg PS76p at day 21 and serum samples were obtained on day 28. Sera from all four mice agglutinated hydrophilic C. albicans cells and agglutinated 2-ME extract-latex beads. The anti-Candida response appeared somewhat stronger in the animals receiving peptide with adjuvant.
Reactivity of the anti-PS76p sera from the mice was also tested in dot blot assays against 2-ME extract (1 μg/dot). Immune sera were diluted 1:10 in 5% BLOTTO-phage buffer, incubated 12-16 h with preblocked dot blots, washed and incubated with peroxidase-conjugated goat anti-mouse Ig (G,M, and A). […] Additional dot blots were incubated in primary antibodies as above and reacted with either γ-chain specific or μ-chain specific secondary antibodies.
Animals were administered booster immunizations of PS76p every two weeks and serum samples obtained 1 week after each. An ELISA assay was utilized to determine any change in titer for the anti-PS76p antiserum samples. Briefly, 2ME extract-coated wells or wells coated with an irrelevant carbohydrate were blocked in 5% BLOTTO/phage buffer and incubated with dilutions of either pre-immune sera or various anti-PS76p antiserum samples. Subsequent steps with the secondary antibody and substrate solution were as described above for ELISA. All of the anti-PS76p serum samples reacted with 2ME extract and recognized the peptide-carrier protein conjugates, but not the irrelevant carbohydrate or the carrier proteins alone. […] Other BALB/C mice (2 animals) were immunized with PS76p plus Ribi adjuvant (1 mg/dose subcutaneous inoculation (s.c.), and reached higher anti-PS76 antibody titers (e.g. 160 by ELISA) after the second boost. ELISA tests performed with class-specific secondary antibody reagents confirm that the response is primarily IgM. […]

MAb B6.1 [2] = experiment: Dot blot inhibition of MAb B6.1 by synthetic peptide at pH 8.6; format: binding, mouse; conditions: up to 200 μM peptide
Description: Because pH below 5 or above 8.5 is required to solubilize PS76p, the reactivity of MAb B6.1 at low and high pH was investigated. […] Although MAb B6.1 is functional at these pH conditions, the PS76p may or may not retain proper epitope conformation at this pH and may require tethering to a carrier molecule to enable inhibition studies to be done at pH 7.

[3] = target: Monoclonal Antibody B6.1 (930610), ATCC Accession No. HB11925
MAb S10 = experiment: ELISA: peptide-carrier conjugates with irrelevant IgM MAb S10; format: binding; conditions: physiologic pH
Description: (§1) Samples of the final conjugates, PS76p-MBS-KLH (i.e. PS76-KLH) and PS76p-GMBS-OVA (i.e. PS76-OVA) were tested by enzyme linked immunosorbent assay (ELISA) for reactivity with MAb B6.1 at physiologic pH. Microtiter plate wells were coated with the peptide conjugates or the carrier proteins alone, washed (Tris buffered saline with 0.1% Tween-20), and blocked in 5% BLOTTO/phage buffer. Wells were washed and incubated with MAb B6.1, an irrelevant IgM (MAb S10) or block only, washed, and a horseradish peroxidase-conjugated goat anti-mouse Ig (G and M) was added. Wells were washed and an o-phenylenediamine substrate solution was added, incubated 10 min and color development stopped with 10% sulfuric acid, and the plate read at OD=490 nm. […] The PS76-KLH conjugate was utilized in an ELISA-based inhibition assay as follows. Microtiter plate wells were coated with PS76-KLH and blocked as above. MAb B6.1 ([…] in block) was pre-incubated with or without either 50 or 500 μg of acid-hydrolyzed 2ME extract per ml of solution, and then added to the conjugate coated well.

MAb B6.1 [4] = experiment: ELISA: peptide-carrier conjugates with MAb B6.1 at physiologic pH; format: binding, mouse; conditions: OD 490 nm
Description: as §1

Molecule: OC[C@H]1O[C@@H](O[C@@H]2[C@H](O[C@@H]3[C@H](O[C@@H]4C(O)O[C@H](CO)[C@@H](O)[C@@H]4O)O[C@H](CO)[C@@H](O)[C@@H]3O)O[C@H](CO)[C@@H](O)[C@@H]2O)[C@@H](O)[C@@H](O)[C@@H]1O (stereo partly drawn) [tetramannose, β-1,2-linked straight-chained tetramannose]
- Binding of yeast cells to the splenic marginal zone [1]: blocks binding

Molecule: CCCC[C@@H](C=O)NC(=O)[C@H](CC(C)C)NC(=O)[C@H](CC(C)C)NC(C)=O [ALLN] (Ac-Leu-Leu-[Nle]-aldehyde)
- Frequency and amount of g3p detectable by IFA (g3p in COS-1 cells): significant increase

Molecule: YRQFVTGFWGPPC [PS76p, synthetic 13-mer: PS76 nonapeptide plus GPP tether and added cysteine]
- Solubility (Solubility tests; deionized water, PBS, 15% v/v dimethylformamide, chloroform, methanol): not soluble
- Solubility (Solubility tests; trifluoroacetic acid, dimethylsulfoxide, 20% v/v acetic acid, citrate and acetate buffers below pH 5.4, borate buffer above pH 8.5): soluble
- ELISA titer against 2ME extract (C. albicans 2ME extract; 1 mg i.p. immunizations, boosters every two weeks): ~40
- Agglutination of hydrophilic C. albicans cells and 2-ME extract-latex beads by sera of immunized mice (C. albicans 2ME extract; 1 mg per dose i.p. with and without Ribi adjuvant, boost day 21, serum day 28, all four mice): agglutinated
- ELISA anti-PS76 antibody titer (C. albicans 2ME extract; 1 mg/dose s.c. plus Ribi adjuvant, after the second boost): 160
- Dot blot reactivity of immune sera to 2-ME extract (C. albicans 2ME extract; sera 1:10, 1 μg/dot, all four immunized mice): showed reactivity
- Class of the antibody response against 2ME extract (C. albicans 2ME extract): primarily IgM
- Inhibition of MAb B6.1 binding to 2-ME extract (MAb B6.1 [2]): negative

Molecule: M13KBst, the parent vector (parent phage) for the PDPL (from UniProt P69168 19-424)
- absorbance (OD490) (irrelevant IgM MAb S10): 0.032 OD490
- absorbance (OD490) [3]: 0.021 OD490

B1: PS76-OVA: PS76p conjugated to ovalbumin via GMBS (conjugate)
peptide: YRQFVTGFWGPPC
chain: GSIGAASMEFCFDVFKELKVHHANENIFYCPIAIMSALAMVYLGAKDSTRTQINKVVRFDKLPGFGDSIEAQCGTSVNVHSSLRDILNQITKPNDVYSFSLASRLYAEERYPILPEYLQCVKELYRGGLEPINFQTAADQARELINSWVESQTNGIIRNVLQPSSVDSQTAMVLVNAIVFKGLWEKAFKDEDTQAMPFRVTEQESKPVQMMYQIGLFRVASMASEKMKILELPFASGTMSMLVLLPDEVSGLEQLESIINFEKLTEWTSSNVMEERKIKVYLPRMKMEEKYNLTSVLMAMGITDVFSSSANLSGISSAESLKISQAVHAAHAEINEAGREVVGSAEAGVDAASVSEEFRADHPFLFCIKHIATNAVLFFGRCVSP
- Reactivity with MAb S10 by ELISA (MAb S10): not substantially
- Reactivity with MAb B6.1 by ELISA (MAb B6.1 [4]): reacted
- ELISA titer against 2ME extract (C. albicans 2ME extract; conjugate s.c.): 320
- Class of the antibody response against 2ME extract (C. albicans 2ME extract): primarily IgM
